Patent publication US20190169597A1, “GENOME EDITING ENHANCERS” (bluebird bio, Inc., priority 2016, published 2019)
“Also recorded” adds a separate entry of the source. Counter-ions that a name gives are not always drawn.

Assays:
[1] = test system: TCRα gene in primary human T cells; assay: Small molecule screen: megaTAL-mediated disruption of the TCRα gene detected by loss of CD3 cell surface staining; format: cell-based; settings: 10 μM, 24 hours at 37° C., then three more days; proportion of CD4/CD8+ cells negative for CD3
Experimental: A small molecule screen (FIG. 1) was performed to identify candidate soluble factors which could modulate the efficiency of genomic editing at the TCR locus in primary human T cells.

[2] = test system: TCRα gene in primary T cells; assay: Dose response of megaTAL-Trex2 TCRα gene disruption (NHEJ editing efficiency) in primary T cells; format: cell-based, human; settings: 24 hours at 30° C. or 37° C.
Experimental: (§1) T cells were purified, activated and electroporated with mRNA encoding TCRα-targeting megaTAL-Trex2 fusion as described in Example 1. Electroporated cells were cultured for 24 hours at either 30° C. or 37° C. with Tilorone, Aminacrine, Homidium Bromide (Ethidium Bromide) and Harmine. Cells were then washed to remove residual compound and cultured for an additional three days. After the three days of culture, the cells were stained with CD4, CD8 and CD3 and analyzed by flow cytometery as described in Example 1.

primary T cells = assay: Dose response of primary T cell viability and yield; format: cell-based, human; settings: 24 hours at 30° C. or 37° C.
Experimental: as §1

[3] = test system: TCRα locus in primary human T cells; assay: Aminacrine HDR assay: megaTAL-induced HDR of AAV MND-GFP transgene at the TCRα locus; format: cell-based; settings: for % GFP positive cells: megaTAL +
Source text: Adeno-associated virus (AAV) plasmids containing transgene cassettes comprising a promoter, a transgene encoding a fluorescent protein, and a polyadenylation signal were designed and constructed. The integrity of AAV ITR elements was confirmed with XmaI digest. The transgene expression cassette was placed between two homology regions within exon 1 of the TCRα gene to enable targeting by homologous recombination (AAV targeting vector) using a TCRα-targeting megaTAL. The 5′ and 3′ homology regions were ˜1500 bp and ˜1000 bp in length, respectively, and neither homology region contained the complete megaTAL target site. The transgene expression cassette contained a myeloproliferative sarcoma virus enhancer, negative control region deleted, d1587rev primer-binding site substituted (MND) promoter operably linked to a polynucleotide encoding a fluorescent polypeptide, e.g., green fluorescent protein (GFP). The expression cassettes also contain the SV40 late polyadenylation signal.
Recombinant AAV-6 (rAAV) was prepared by transiently co-transfecting HEK 293T cells with one or more plasmids providing the replication, capsid, and adenoviral helper elements necessary. rAAV was purified from the co-transfected HEK 293T cell culture using ultracentrifugation in an iodixanol-based gradient.
MegaTAL-induced homology directed repair (HDR) was evaluated in primary human T cells activated with CD3 and CD28 and cultured in complete media supplemented with IL-2. […] Controls included T cells containing megaTAL or rAAV targeting vector alone. Cells were cultured overnight at 30° C. in the presence or absence of two different doses of aminacrine. Five days post electroporation the frequency of GFP+ T cells was measured by flow cytometry.

[4] = test system: BCL11A erythroid enhancer locus in primary human CD34+ cells; assay: HDR of AAV BFP template at the BCL11A erythroid enhancer with BCL11A megaTAL in CD34+ cells; format: cell-based; settings: aminacrine 0.3 μM, 1.0 μM, 3.0 μM for 24 hours
Experimental: Adeno-associated virus (AAV) plasmids containing a promoter, a GFP or BFP reporter transgene and a polyadenylation signal were designed, constructed, and verified. The transgene was flanked by either 1.3 kb and 1.0 kb homology arms to the BCL11A erythroid enhancer locus at DHS58 (Bauer et al., Science. 342(6155): 253-7 (2013)). rAAV is generated by transient transfection of HEK293T cells, as described in Example 3.
(§2) Primary human peripheral blood-derived CD34+ cells were cultured in cytokine-supplemented media for 72 hours. Cells were washed and electroporated with either an mRNA encoding a megaTAL specific for the human BCL11A erythroid enhancer region or a megaTAL targeting the human CCR5 locus. Cells were then incubated with AAV vector with or without aminacrine at concentrations of 0 μM, 0.3 μM, 1.0 μM, and 3.0 μM for 24 hours, washed and cultured in cytokine-supplemented media. HDR was analyzed at regular timepoints by flow cytometry to determine BFP fluorescence.

[5] = test system: CCR5 locus in primary human CD34+ cells; assay: Non-target control: CCR5-specific megaTAL combined with BCL11A-targeting AAV template in CD34+ cells; format: cell-based; settings: aminacrine 0.3-3.0 μM for 24 hours
Experimental: as §2

[6] = test system: human peripheral blood CD34+ cells; assay: Methylcellulose colony forming assay of edited CD34+ cells; format: cell-based
Experimental: (§3) A potential caveat with using small molecules to enhance gene repair is the impact on hematopoietic stem and progenitor cell survival. The methylceulluose colony forming assay was used to determine the impact of aminacrine treatment on hematopoietic stem and progenitor cell survival in vitro. Human peripheral blood CD34+ cells were cultured in cytokine supplemented media, electroporated with mRNA encoding BCL11A-specific megaTAL and transduced with BCL11A-HDR AAV vector, as described in Example 4.
(§4) Cells were cultured in the presence or absence of aminacrine during the first 24 hours post-electroporation. Following this post-electroporation recovery step, cells were counted and plated into methylcellulose media.
After 14 days in methylcellulose culture, the erythroid burst-forming units (BFU) and hematopoietic colony forming units (CFU) were scored based on frequency and morphology. […] FIG. 6.

[7] = test system: BCL11A locus in primary human hematopoietic stem and progenitor cells; assay: HDR in methylcellulose colonies derived from CD34+ cells, by flow cytometry; format: cell-based; settings: samples treated with both megaTAL and rAAV vector
Experimental: as §3, §4
To determine whether treatment with aminacrine could yield elevated HDR rates in methylcellulose colonies derived from primary human hematopoietic stem and progenitor cells, colonies were harvested and analyzed by flow cytometry. […] FIG. 7.

[8] = test system: BCL11A erythroid enhancer region in primary human CD34+ cells; assay: HDR in bulk CD34+ cell population with BCL11A megaTAL and AAV donor template; format: cell-based; settings: aminacrine 1.0 μM for 24 hours
Experimental: as §2, with “48” for “72”, “with” for “with either”, “region.” for “region or a megaTAL targeting the human CCR5 locus.”, “a concentration” for “concentrations”, “of” for “of 0 μM, 0.3 μM,”, “1.0” for “1.0 μM, and 3.0”

primary human T cells = assay: Small molecule screen: cell yield (flow cytometry events in the live gate); settings: 10 μM, 24 hours at 37° C., then three more days; number of flow cytometry events in the live gate
Experimental: Briefly, purified CD3+ primary human T cells were activated with CD3/CD28 magnetic beads and cultured for 48 hours in IL-2 supplemented complete RPMI media prior to bead removal. After bead removal, T cells were washed and electroporated with in vitro transcribed mRNA encoding a T cell receptor alpha (TCRα) targeting megaTAL-Trex2 fusion mRNA. Cells were then distributed into 384-well format and contacted with a library of ˜2000 known drugs, natural products, and other bioactive components (Microsource Discovery System's Spectrum Collection), with each drug at a final concentration of 10 μM. Cells were cultured with the compounds for 24 hours at 37° C. and then washed and cultured for an additional three days. Cells were then stained for CD3, CD4, and CD8 surface markers, and subjected to high-throughput volumetric flow cytometric analysis.
The number of flow cytometry events in the “live” gate of the FSC/SSC profile was used as a measure of cell yield.

Row | Compound | % CD3 negative [1] [%] | efficiency of TCRα disruption (proportion of CD3-negative cells), in words [2] | Cell Yield (primary human T cells) | further results
1 | Nc1c2ccccc2nc2ccccc12 [Aminacrine, 9-aminoacridine] | 82.8 | Enhance MegaTAL-Mediated Gene Disruption; also recorded: substantially enhanced gene disruption | 13621 | T cell viability and yield, in words (primary T cells): minimal impact on cell viability; % GFP+ (frequency of HDR events) ([3]; 10 μM aminacrine following megaTAL transfection, 18% without aminacrine): 36%; % GFP positive cells ([3]; Donor 783, Aminacrine 2 μM, AAV-GFP +): 25%; % GFP positive cells ([3]; Donor 783, Aminacrine 2 μM, AAV-GFP −): 0; % GFP positive cells ([3]; Donor 783, Aminacrine 10 μM, AAV-GFP +): 36%; % GFP positive cells ([3]; Donor 783, Aminacrine 10 μM, AAV-GFP −): 0; % GFP positive cells ([3]; Donor 855, Aminacrine 2 μM, AAV-GFP +): 41%; % GFP positive cells ([3]; Donor 855, Aminacrine 2 μM, AAV-GFP −): 0; % GFP positive cells ([3]; Donor 855, Aminacrine 10 μM, AAV-GFP +): 38%; % GFP positive cells ([3]; Donor 855, Aminacrine 10 μM, AAV-GFP −): 0; frequency of HDR events (% GFP+ cells), in words ([3]; T cells, aminacrine 2 μM and 10 μM overnight at 30° C.): concentration-dependent increase; HDR frequency at the BCL11A locus (% BFP+ cells), in words [4]: concentration-dependent increase in HDR frequency; Template capture via a non-homology driven NHEJ pathway, in words [5]: not enhanced; proportion of BFP+ cells with CCR5-specific megaTAL and BCL11A-targeting AAV template, in words [5]: did not significantly increase; proportion of BFP+ cells with CCR5-specific megaTAL and BCL11A-targeting AAV template, in words ([5]; listed as aminacrine): not at the non-target CCR5 locus; lineage output of BFU and CFU colonies, in words ([6]; 14 days in methylcellulose culture, aminacrine during first 24 hours post-electroporation): comparable lineage output and showed no overt lineage skewing; hematopoietic stem and progenitor cell survival, in words ([6]; methylcellulose colony forming assay): does not Adversely Affect; proportion of cells undergoing HDR in methylcellulose colonies, in words [7]: increased the proportion of cells undergoing HDR; HDR frequency at the BCL11A locus (% BFP+ cells) in bulk CD34+ cells, in words [8]: increased HDR frequency; HDR frequency at the BCL11A locus (% BFP+ cells) in bulk CD34+ cells, in words ([8]; listed as aminacrine): increases HDR
2 | C[C@@H]1C[C@@H]([C@H](O)CC2CC(=O)NC(=O)C2)C(=O)[C@@H](C)C1 [Cyclohexamide] | 68.7 | – | 4166 | –
3 | COc1cccc2c1C(=O)c1c(O)c3c(c(O)c1C2=O)C[C@@](O)(C(C)=O)C[C@@H]3O[C@H]1C[C@H](N)[C@H](O)[C@H](C)O1 [Daunorubicin] | 73.3 | – | 35 | –
4 | CCOc1ccc2nc3cc(N)ccc3c(N)c2c1 [Ethacridine Lactate] | 70.4 | – | 14179 | –
5 | COc1ccc2c(c1)[nH]c1c(C)nccc12 [Harmine] | 75.1 | Enhance MegaTAL-Mediated Gene Disruption | 9581 | –
6 | CC[n+]1c(-c2ccccc2)c2cc(N)ccc2c2ccc(N)cc21 [Homidium Bromide] | 80.3 | Enhance MegaTAL-Mediated Gene Disruption | 1023 | –
7 | CCN(CC)CCNc1ccc(CO)c2sc3ccccc3c(=O)c12 [Hycanthone] | 74.1 | – | 10012 | –
8 | OC[C@H]1O[C@@H](n2cnc3c(NCc4ccco4)ncnc32)[C@H](O)[C@@H]1O [Kinetin Riboside] | 70.8 | – | 1668 | –
9 | C[n+]1cc2c3c(ccc2c2ccc4cc5c(cc4c21)OCO5)OCO3 [Sanguinarine Sulfate] | 71.1 | – | 2346 | –
10 | CCN(CC)CCOc1ccc2c(c1)C(=O)c1cc(OCCN(CC)CC)ccc1-2 [Tilorone] | 86.8 | Enhance MegaTAL-Mediated Gene Disruption | 310 | –
